Experimental data taken from US20210130473A1, “TGFßR1 INHIBITOR-ASGR ANTIBODY CONJUGATES AND USES THEREOF” (Silverback Therapeutics, Inc., priority 2019, published 2021).

Tests used:
[1] = biological target: T1, ALK5 (Homo sapiens, UniProt P36897); experiment: ALK5 enzyme inhibition assay (casein substrate, 10 uM ATP, 33P-ATP, filter-binding; Reaction Biology Corp); format: biochemical; settings: Table 11
T1 construct: purchased Reaction Biology Corp (Malvern, Pa.)
T1 sequence (P36897 34-503): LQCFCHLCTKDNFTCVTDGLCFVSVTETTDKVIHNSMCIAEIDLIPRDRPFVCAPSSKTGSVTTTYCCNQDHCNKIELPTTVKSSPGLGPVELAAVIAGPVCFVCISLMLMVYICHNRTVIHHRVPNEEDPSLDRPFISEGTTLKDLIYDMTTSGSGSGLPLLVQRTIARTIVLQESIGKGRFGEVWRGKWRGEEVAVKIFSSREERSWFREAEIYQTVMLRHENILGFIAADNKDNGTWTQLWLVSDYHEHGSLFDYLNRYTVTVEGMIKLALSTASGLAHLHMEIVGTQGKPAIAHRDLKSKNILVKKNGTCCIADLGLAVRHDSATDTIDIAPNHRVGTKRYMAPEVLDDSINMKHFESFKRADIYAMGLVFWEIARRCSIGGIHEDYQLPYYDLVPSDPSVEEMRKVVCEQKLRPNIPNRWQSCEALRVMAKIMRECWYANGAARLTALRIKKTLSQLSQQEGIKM
Experimental: ALK5 enzyme inhibition assays were performed by Reaction Biology Corp (Malvern, Pa.). 1 mg/mL of peptide substrate (casein) and 10 uM ATP were prepared in a mixture of fresh reaction buffer. The kinase was delivered into the substrate solution which was gently mixed. Compounds in 100% DMSO were added to the kinase reaction mixture by Acoustic technology (Echo550; nanoliter range) and the mixture was incubated for 20 min at room temperature. ^33P-ATP (Specific activity 10 uCi/uL) was added into the reaction mixture to initiate the reaction and the reaction mixture was incubated for 2 hours at room temperature. Radioactivity was detected by filter-binding method and kinase activity data were expressed as the percent remaining kinase activity in test samples compared to vehicle (dimethyl sulfoxide) reactions. IC50 values and curve fits were obtained using Prism (GraphPad Software).

[2] = system: TGFβ/SMAD Signaling Pathway SBE reporter cell line; experiment: TGFb reporter assay in HEK293 SBE-LUC reporter cells (luciferase); format: cell-based; settings: Homo sapiens, key of the table says IC50, read-out: EC50 (the source's name)
Experimental: TGFβ/SMAD Signaling Pathway SBE reporter cell line was obtained from BPS Bioscience. Cells are passed, expanded, and stored in liquid nitrogen as per the supplier's instructions with the exception that growth media is changed to DMEM-C with Geneticin (DMEM supplemented with 10% fetal bovine serum, 1×NEAA, 1 mM Pyruvate, 2 mM glutamine, 50 μg/mL penicillin, 50 U/mL streptomycin and 400 μg/mL of Geneticin). The assay media is MEM supplemented with 0.5% fetal bovine serum, 1×NEAA, 1 mM Pyruvate, 50 μg/mL penicillin and 50 U/mL streptomycin.
Compounds are assayed to measure their activity as ALK5 inhibitors.
The HEK293 SBE-LUC reporter cells from Example 15 were grown in DMEM-C with Geneticin (DMEM supplemented with […], 1×NEAA, 1 mM Pyruvate, 2 mM glutamine, 50 μg/mL penicillin, 50 U/mL streptomycin and 400 ug/mL of Geneticin). The assay media was MEM supplemented with 0.5% fetal bovine serum, 1×NEAA, 1 mM Pyruvate, 50 μg/mL penicillin and 50 U/mL streptomycin.
The HEK293 SBE-LUC reporter cells were harvested from the tissue culture flasks by incubation in small quantity of Versene at room temperature for three to five minutes after the media in the flask is removed and cells rinsed with PBS. Cells were counted and diluted in the assay media at ˜0.8×10^6 cells/mL then 50 uL/well were added to 96-well assay plate. Test samples (at desired concentrations diluted in assay media) were added to assay plate containing the 50 uL/well of cells (or media only), 50 uL per well, and incubated for 5-6 hours at 37° C. in a 5% CO2 humidified incubator. After that time, 15 uL of TGFb diluted to 12.5 ng/mL in the assay media was added to the plate. Controls included TGFb titration (from 25 to 0 ng/mL) without inhibitors, and media only (without cells, inhibitor or TGFb). Plates were incubated at 37° C. in a 5% CO2 humidified incubator for 18h. Luciferase substrate solution was subsequently added at 75 uL per well, incubated in dark with shaking at room temperature for 10 min, and luminescence was measured using a luminometer.

[3] = system: HEK293 SBE-LUC reporter cells transfected to stably express full length human ASGR1; experiment: Cell reporter assay of anti-ASGR1-ALK5 inhibitor conjugates: TGFβ1-mediated luciferase expression; format: cell-based; settings: inhibition of TGFβ1-mediated luciferase expression, 6 h preincubation, human TGFβ1 1.6 ng/ml, further 18 h
Experimental: Anti-ASGR1 antibodies conjugated to an ALK5 inhibitor were tested via a cell reporter assay. Briefly, HEK293 SBE-LUC reporter cells transfected to stably express full length human ASGR1 were seeded in 96 well plates at 40,000 cells/well in an assay media of minimum essential media containing 0.5% fetal bovine serum, 1% nonessential amino acids, 1% sodium pyruvate and 1% Pen/Strep. Anti-ASGR1-ALK5 inhibitor conjugates and controls were added to wells in a dose titration ranging from 5 μM to 0.064 nM to HEK293 SBE-LUC and ASGR1-HEK293 SBE-LUC cells. After incubating for 6 hours at 37° C. in a 5% CO2 environment, human TGFβ 1 (PeproTech Inc.) was added to a final concentration of 1.6 ng/ml followed by an additional 18 hour incubation under the same conditions. Luciferase STEADY-GLO® reagent (Promega Corporation) was added at 70 μl/well and incubated with shaking for 10 minutes. Luciferase activity was determined by measuring luminescence with an ENVISION® Plate Reader (Perkin-Elmer Inc.). Data were fit with a four-parameter non-linear regression to calculate IC50 values using Prism Software v7.04 (GraphPad Inc.).

SMILES | IC50 [1] | IC50 [2] | IC50 [3]
Cc1cccc(-c2nc(CNCc3ccccc3-c3ccccc3F)[nH]c2-c2ccc3ncnn3c2)n1 [Compound 38] | 0.0001 to 0.05 µM | 0.0001 to 0.01 µM | 
Cc1cccc(-c2nc(CNCc3ccccc3-c3cc(F)cc(F)c3)[nH]c2-c2ccc3ncnn3c2)n1 [Compound 39] | 0.0001 to 0.05 µM | 0.01 to 0.1 µM | 
Cc1cccc(-c2nc(CNCc3ccccc3-c3ccccn3)[nH]c2-c2ccc3ncnn3c2)n1 [Compound 40] | 0.1 to 1 µM | 0.01 to 0.1 µM | 
Cc1cccc(-c2nc(CNCc3ccccc3-c3cccnc3)[nH]c2-c2ccc3ncnn3c2)n1 [Compound 41] | 0.05 to 0.1 µM | 0.0001 to 0.01 µM | 
Cc1cccc(-c2nc(CNCc3ccccc3-c3ccncc3)[nH]c2-c2ccc3ncnn3c2)n1 [Compound 42] | 0.1 to 1 µM | 0.01 to 0.1 µM | 
Cc1cccc(-c2nc(CNCc3ccccc3C3CCCCC3)[nH]c2-c2ccc3ncnn3c2)n1 [Compound 43] | 0.1 to 1 µM | 0.1 to 1 µM | 
Cc1cccc(-c2nc(CNCc3ccccc3C3CCCC3)[nH]c2-c2ccc3ncnn3c2)n1 [Compound 44] | 0.1 to 1 µM | 0.01 to 0.1 µM | 
Cc1cccc(-c2nc(CNCc3cccc(C)c3C)[nH]c2-c2ccc3ncnn3c2)n1 [Compound 45] | 0.05 to 0.1 µM | 0.0001 to 0.01 µM | 
COc1cccc(CNCc2nc(-c3cccc(C)n3)c(-c3ccc4ncnn4c3)[nH]2)c1C [Compound 46] | 0.05 to 0.1 µM | 0.0001 to 0.01 µM | 
Cc1cccc(-c2nc(CNCc3cccc(Cl)c3C)[nH]c2-c2ccc3ncnn3c2)n1 [Compound 47] | 0.0001 to 0.05 µM | 0.0001 to 0.01 µM | 
Cc1cccc(-c2nc(CNCc3cccc(C)c3-c3ccccc3)[nH]c2-c2ccc3ncnn3c2)n1 [Compound 48] | 0.0001 to 0.05 µM | 0.01 to 0.1 µM | 
Cc1cccc(-c2nc(CNCc3cccc(-c4ccccc4)c3C)[nH]c2-c2ccc3ncnn3c2)n1 [Compound 49] | 0.1 to 1 µM | 0.01 to 0.1 µM | 
Cc1cccc(CNCc2nc(-c3cccc(C)n3)c(-c3ccc4ncnn4c3)[nH]2)c1 [Compound 50] | 0.1 to 1 µM | 0.01 to 0.1 µM | 
Cc1cccc(-c2nc(CNCc3cccc(-c4ccccc4)c3)[nH]c2-c2ccc3ncnn3c2)n1 [Compound 51] | 0.1 to 1 µM | 0.1 to 1 µM | 
Cc1cccc(-c2nc(CNCCc3ccccc3)[nH]c2-c2ccc3ncnn3c2)n1 [Compound 52] | 0.05 to 0.1 µM | 0.0001 to 0.01 µM | 
Cc1cccc(-c2nc(CNCc3ccccc3Oc3ccccc3)[nH]c2-c2ccc3ncnn3c2)n1 [Compound 53] | 0.0001 to 0.05 µM | 0.0001 to 0.01 µM | 
Cc1cccc(-c2nc(CNCc3ccccc3Oc3cccnc3)[nH]c2-c2ccc3ncnn3c2)n1 [Compound 54] | 0.05 to 0.1 µM | 0.0001 to 0.01 µM | 
Cc1cccc(-c2nc(CNCCc3ccccc3F)[nH]c2-c2ccc3ncnn3c2)n1 [Compound 59] | 0.0001 to 0.05 µM | 0.0001 to 0.01 µM | 
Cc1cccc(-c2nc(CNCCc3c(F)cccc3F)[nH]c2-c2ccc3ncnn3c2)n1 [Compound 60] | 0.0001 to 0.05 µM | 0.0001 to 0.01 µM | 0.0134 µM
Cc1cccc(-c2nc(CNCCc3cccc(F)c3)[nH]c2-c2ccc3ncnn3c2)n1 [Compound 61] | 0.0001 to 0.05 µM | 0.0001 to 0.01 µM | 

SMILES | IC50 [1] | IC50 [2] | IC50 [3]
Cc1cccc(-c2nc(CNCCc3ccc(F)cc3)[nH]c2-c2ccc3ncnn3c2)n1 [Compound 62] | 0.1 to 1 µM | 0.0001 to 0.01 µM | 
Cc1cccc(-c2nc(CNCCc3ccc(F)cc3F)[nH]c2-c2ccc3ncnn3c2)n1 [Compound 63] | 0.1 to 1 µM | 0.0001 to 0.01 µM | 
Cc1cccc(-c2nc(CNCCCc3ccccc3)[nH]c2-c2ccc3ncnn3c2)n1 [Compound 64] | 0.1 to 1 µM | 0.0001 to 0.01 µM | 
Cc1cccc(-c2nc(CNCCOc3ccccc3)[nH]c2-c2ccc3ncnn3c2)n1 [Compound 65] | 0.1 to 1 µM | 0.0001 to 0.01 µM | 
Cc1cccc(-c2nc(CNCCNc3ccccc3)[nH]c2-c2ccc3ncnn3c2)n1 [Compound 66] | 0.1 to 1 µM | 0.0001 to 0.01 µM | 
Cc1cccc(-c2nc(CNCCN(C)c3ccccc3)[nH]c2-c2ccc3ncnn3c2)n1 [Compound 67] | 0.05 to 0.1 µM | 0.0001 to 0.01 µM | 
Cc1cccc(-c2nc(CNCc3ccccc3-c3ccccc3)[nH]c2-c2ccc3ncccc3n2)n1 [Compound 68] | 0.0001 to 0.05 µM | 0.01 to 0.1 µM | 
Cc1cccc(-c2nc(CNCc3ccccc3-c3ccccc3)[nH]c2-c2ccnc3ccccc23)n1 [Compound 69] | 0.1 to 1 µM | 0.1 to 1 µM | 
Cc1cccc(-c2nc(CNCc3ccccc3-c3ccccc3)[nH]c2-c2ccc3c(c2)OCO3)n1 [Compound 71] | 0.0001 to 0.05 µM | 0.1 to 1 µM | 
Cc1cccc(-c2nc(CNCCc3c(F)cccc3F)[nH]c2-c2ccc3c(c2)OCO3)n1 [Compound 81] | 0.0001 to 0.05 µM | 0.01 to 0.1 µM | 
Cc1cccc(-c2nc(CNCCc3c(F)cccc3F)[nH]c2-c2ccc3nccnc3c2)n1 [Compound 82] | 0.0001 to 0.05 µM | 0.0001 to 0.01 µM | 
Cc1cccc(-c2nc(CNCc3ccccc3C)[nH]c2-c2ccc3ncccc3n2)n1 [Compound 83] | 0.05 to 0.1 µM | 0.0001 to 0.01 µM | 
COc1ccccc1CCNCc1nc(-c2cccc(C)n2)c(-c2ccc3ncccc3n2)[nH]1 [Compound 84] | 0.1 to 1 µM | 0.0001 to 0.01 µM | 
Cc1cccc(-c2nc(CNCCN(C)c3ccccc3)[nH]c2-c2ccc3ncccc3n2)n1 [Compound 85] | 0.05 to 0.1 µM | 0.0001 to 0.01 µM | 
Cc1cccc(-c2nc(CNCc3ccccc3C)[nH]c2-c2ccc3nccnc3c2)n1 [Compound 86] | 0.0001 to 0.05 µM | 0.0001 to 0.01 µM | 
COc1ccccc1CCNCc1nc(-c2cccc(C)n2)c(-c2ccc3nccnc3c2)[nH]1 [Compound 87] | 0.0001 to 0.05 µM | 0.0001 to 0.01 µM | 
Cc1cccc(-c2nc(CNCCN(C)c3ccccc3)[nH]c2-c2ccc3nccnc3c2)n1 [Compound 88] | 0.0001 to 0.05 µM | 0.0001 to 0.01 µM | 
Cc1cccc(-c2nc(CNCc3ccccc3)[nH]c2-c2ccc3ncccc3c2)n1 [Compound 90] | 0.05 to 0.1 µM | 0.0001 to 0.01 µM | 
Cc1cccc(-c2nc(CNCc3ccccc3-c3ccccc3)[nH]c2-c2ccc3ncccc3c2)n1 [Compound 91] | 0.1 to 1 µM | 0.01 to 0.1 µM | 
